PMC7112121 (Bioorganic Chemistry, 2019)
Read-outs that look alike come from different tables or passages of the source.

B1: Urtica dioica agglutinin (protein, UniProt P11218 24-372, looked up)
Lectin/endochitinase 1: QRCGSQGGGGTCPALWCCSIWGWCGDSEPYCGRTCENKCWSGERSDHRCGAAVGNPPCGQDRCCSVHGWCGGGNDYCSGSKCQYRCSSSVRGPRVALSGNSTANSIGNVVVTEPLFDQMFSHRKDCPSQGFYSYHSFLVAAESFPAFGTIGDVATRKREVAAFLAHISQATSGERSDVENPHAWGLCHINTTTVTENDFCTSSDWPCAAGKKYSPRGPIQLTHNFNYGLAGQAIGEDLIQNPDLVEKDPIISFKTALWFWMSQHDNKPSCHDIVLNANSAANRIPNKGVIGNIISRAFGHDDFAVRSSSIGFYKRYCDMLGVSYGHDLKYWFDNTPSSEFQRIQMRVAA

What was measured:
Vaccinia virus = test: microbe, parasite or virus in culture; format: cell-based; settings: for EC50: Orthopoxvirus vaccinia, HEL, read-out: Antiviral EC50 Vaccinia virus
HSV-2 = test: Antiviral CPE reduction assay, HSV-2 in HEL cells; format: cell-based, Herpes simplex virus-2; settings: for EC50: Human alphaherpesvirus 2, HEL, read-out: Antiviral EC50 HSV-2; for Antiviral EC50 HSV-2: HEL cells, CPE by microscopy, mean of two experiments
ACV^r-HSV-1 = test: Antiviral CPE reduction assay, ACVr-HSV-1 in HEL cells; format: cell-based; settings: for EC50: Human alphaherpesvirus 1, HEL, read-out: Antiviral EC50 ACV^r-HSV-1; for Antiviral EC50 ACV^r-HSV-1: HEL cells, CPE by microscopy, mean of two experiments
[1] = test system: human embryonic lung (HEL) fibroblast cells; settings: minimum cytotoxic concentration
[2] = test system: Vesicular stomatitis virus; format: cell-based
[3] = test system: Mycobacterium tuberculosis H37Rv; settings: for H37Rv Finding Activity: M. tuberculosis H37Rv, MABA in BACTEC 12B medium
VERO cells = settings: minimum cytotoxic concentration
Coxsackie B4 virus = test: Antiviral CPE reduction assay, Coxsackie B4 virus in VERO cells; format: cell-based; settings: for Antiviral EC50 Coxsackie B4 virus: CPE by microscopy, mean of two experiments; for EC50: Enterovirus B, B4, Vero, read-out: Antiviral EC50 Coxsackie B4 virus
Reovirus-1 = test: Antiviral CPE reduction assay, Reovirus-1 in VERO cells; format: cell-based; settings: for Antiviral EC50 Reovirus-1: VERO cells, CPE by microscopy, mean of two experiments; for EC50: Vero, read-out: Antiviral EC50 Reovirus-1
CRFK feline kidney cells = settings: MTS cell viability assay
Parainfluenza-3 virus = test: Antiviral CPE reduction assay, Parainfluenza-3 virus in VERO cells; format: cell-based; settings: for Antiviral EC50 Parainfluenza-3 virus: VERO cells, CPE by microscopy, mean of two experiments; for EC50: Vero, read-out: Antiviral EC50 Parainfluenza-3 virus
Punto Toro virus = test: Antiviral CPE reduction assay, Punto Toro virus in VERO cells; format: cell-based, Punta toro virus; settings: for Antiviral EC50 Punto Toro virus: VERO cells, CPE by microscopy, mean of two experiments; for EC50: Punta Toro virus, Vero, read-out: Antiviral EC50 Punto Toro virus
HSV-1 = test: Antiviral CPE reduction assay, HSV-1 in HEL cells; format: cell-based, Herpes simplex virus-1; settings: for Antiviral EC50 HSV-1: HEL cells, CPE by microscopy, mean of two experiments; for EC50: Human alphaherpesvirus 1, HEL, read-out: Antiviral EC50 HSV-1
Sindbis virus = test: Antiviral CPE reduction assay, Sindbis virus in VERO cells; format: cell-based; settings: for Antiviral EC50 Sindbis virus: VERO cells, CPE by microscopy, mean of two experiments; for EC50: Sindbis virus, Vero, read-out: Antiviral EC50 Sindbis virus
Feline herpesvirus = test: Antiviral CPE reduction assay, Feline herpesvirus in CRFK cells; format: cell-based; settings: Felid alphaherpesvirus 1, CRFK, read-out: Antiviral EC50 Feline herpesvirus
Feline coronavirus = test: microbe, parasite or virus in culture; settings: Alphacoronavirus 1, CRFK, read-out: Antiviral EC50 Feline coronavirus
[4] = microscopic inspection of cell morphology

| Molecule | EC50 (Vaccinia virus) | EC50 (HSV-2) | EC50 (ACV^r-HSV-1) | Cytotoxicity MCC (VERO cells; [4]) [µg/mL] | Cytotoxicity MCC [1, 4] [µg/mL] | EC50 (Coxsackie B4 virus) | EC50 (Reovirus-1) | EC50 (Feline herpesvirus) | EC50 (Parainfluenza-3 virus) | EC50 (Feline coronavirus) | EC50 (Punto Toro virus) | EC50 (HSV-1) | EC50 (Sindbis virus) | also measured |
| --- | --- | --- | --- | --- | --- | --- | --- | --- | --- | --- | --- | --- | --- | --- |
| Nc1nc2c(ncn2COCCO)c(=O)[nH]1 [Acyclovir, reference compound] | > 250 µM | 0.5 µM | ≥ 112 µM | – | – | – | – | – | – | – | – | – | – | – |
| O=c1[nH]c(=O)n([C@H]2C[C@H](O)[C@@H](CO)O2)cc1/C=C/Br [Brivudine, reference compound] | – | 50 µM | – | – | – | – | – | – | – | – | – | – | – | Cytotoxicity MCC ([1]; reference in µM): >250 µM |
| Nc1ccn(C[C@@H](CO)OCP(=O)(O)O)c(=O)n1 [Cidofovir, reference compound] | – | – | – | – | – | – | – | – | – | – | – | – | – | Cytotoxicity MCC ([1]; reference in µM): >250 µM |
| O=C(Cc1csc2nc(-c3ccc(Br)cc3)cn12)NN=C1CCCCC1 [Compound 4b, 6-(4-Bromophenyl)-N^2-(cyclohexylidene)imidazo[2,1-b]thiazole-3-acetohydrazide] | – | – | – | >100 | 20 | – | – | – | – | – | – | – | – | Antiviral EC50 Vaccinia virus (Vaccinia virus): >100 µg/mL; Antiviral EC50 Vesicular stomatitis virus [2]: >100 µg/mL; H37Rv Finding MIC [3]: >100 µg/mL; IC50 [3]: > 100 µg/mL; H37Rv Finding Activity [3]: Inactive; Antiviral EC50 HSV-2 (HSV-2): >100 µg/mL; Antiviral EC50 Coxsackie B4 virus (Coxsackie B4 virus; VERO cells): >100 µg/mL; Antiviral EC50 Reovirus-1 (Reovirus-1): >100 µg/mL; Cytotoxicity CC50 (CRFK feline kidney cells): >100 µg/mL; Antiviral EC50 Parainfluenza-3 virus (Parainfluenza-3 virus): >100 µg/mL; Antiviral EC50 Punto Toro virus (Punto Toro virus): >100 µg/mL; Antiviral EC50 HSV-1 (HSV-1): >100 µg/mL; Antiviral EC50 ACV^r-HSV-1 (ACV^r-HSV-1): >100 µg/mL; Antiviral EC50 Sindbis virus (Sindbis virus): >100 µg/mL |
| O=C(Cc1csc2nc(-c3ccc(Br)cc3)cn12)NN1C(=O)CSC12CCCC2 [Compound 5a, 2-[6-(4-Bromophenyl)imidazo[2,1-b]thiazole-3-yl]-N-(3-oxo-1-thia-4-azaspiro[4.4]non-4-yl)acetamide] | > 100 µg/mL | > 100 µg/mL | > 100 µg/mL | ≥20 | 100 | > 100 µg/mL | > 100 µg/mL | > 100 µg/mL | > 100 µg/mL | > 100 µg/mL | > 100 µg/mL | > 100 µg/mL | > 100 µg/mL | H37Rv Finding MIC [3]: 8.453 µg/mL; H37Rv Finding Activity [3]: Active |
| O=C(Cc1csc2nc(-c3ccc(Br)cc3)cn12)NN1C(=O)CSC12CCCCC2 [Compound 5b, 2-[6-(4-Bromophenyl)imidazo[2,1-b]thiazole-3-yl]-N-(3-oxo-1-thia-4-azaspiro[4.5]dec-4-yl)acetamide] | > 100 µg/mL | > 100 µg/mL | > 100 µg/mL | >100 | >100 | > 100 µg/mL | > 100 µg/mL | > 100 µg/mL | > 100 µg/mL | > 100 µg/mL | > 100 µg/mL | > 100 µg/mL | > 100 µg/mL | H37Rv Finding MIC [3]: 1.566 µg/mL; H37Rv Finding Activity [3]: Active |
| CC1SC2(CCCC2)N(NC(=O)Cc2csc3nc(-c4ccc(Br)cc4)cn23)C1=O (centres unmarked) [Compound 6a, 2-[6-(4-Bromophenyl)imidazo[2,1-b]thiazole-3-yl]-N-(2-methyl-3-oxo-1-thia-4-azaspiro[4.4]non-4-yl)acetamide] | > 100 µg/mL | > 100 µg/mL | > 100 µg/mL | 100 | ≥20 | > 100 µg/mL | > 100 µg/mL | > 100 µg/mL | > 100 µg/mL | > 100 µg/mL | > 100 µg/mL | > 100 µg/mL | > 100 µg/mL | – |
| CC1SC2(CCCCC2)N(NC(=O)Cc2csc3nc(-c4ccc(Br)cc4)cn23)C1=O (centres unmarked) [Compound 6b, 2-[6-(4-Bromophenyl)imizado[2,1-b]thiazole-3-yl]-N-(2-methyl-3-oxo-1-thia-4-azaspiro[4], [5]dec-4-yl)acetamide] | – | – | – | 100 | 20 | – | – | – | – | – | – | – | – | Antiviral EC50 Vaccinia virus (Vaccinia virus): >100 µg/mL; Antiviral EC50 Vesicular stomatitis virus [2]: >100 µg/mL; Antiviral EC50 HSV-2 (HSV-2): >100 µg/mL; Antiviral EC50 Coxsackie B4 virus (Coxsackie B4 virus; VERO cells): >100 µg/mL; Antiviral EC50 Reovirus-1 (Reovirus-1): >100 µg/mL; Cytotoxicity CC50 (CRFK feline kidney cells): 9.2 µg/mL; Antiviral EC50 Parainfluenza-3 virus (Parainfluenza-3 virus): >100 µg/mL; Antiviral EC50 Punto Toro virus (Punto Toro virus): >100 µg/mL; Antiviral EC50 HSV-1 (HSV-1): >100 µg/mL; Antiviral EC50 ACV^r-HSV-1 (ACV^r-HSV-1): >100 µg/mL; Antiviral EC50 Sindbis virus (Sindbis virus): >100 µg/mL |
| CC1SC2(CCC(c3ccccc3)CC2)N(NC(=O)Cc2csc3nc(-c4ccc(Br)cc4)cn23)C1=O (centres unmarked) [Compound 6c, 2-[6-(4-Bromophenyl)imidazo[2,1-b]thiazole-3-yl]-N-(2-methyl-8-phenyl-3-oxo-1-thia-4-azaspiro[4.5]dec-4-yl)acetamide] | > 100 µg/mL | > 100 µg/mL | > 100 µg/mL | 20 | 20 | > 100 µg/mL | > 100 µg/mL | > 100 µg/mL | > 100 µg/mL | > 100 µg/mL | > 100 µg/mL | > 100 µg/mL | > 100 µg/mL | – |
| CC1SC2(CCC(c3ccc(O)cc3)CC2)N(NC(=O)Cc2csc3nc(-c4ccc(Br)cc4)cn23)C1=O (centres unmarked) [Compound 6d, 2-[6-(4-Bromophenyl)imidazo[2,1-b]thiazole-3-yl]-N-(2-methyl-8-(4-hydroxyphenyl)-3-oxo-1-thia-4-azaspiro[4.5]dec-4-yl)acetamide] | > 100 µg/mL | > 100 µg/mL | > 100 µg/mL | ≥20 | ≥20 | 10 µg/mL | > 100 µg/mL | > 100 µg/mL | > 100 µg/mL | > 100 µg/mL | > 100 µg/mL | > 100 µg/mL | > 100 µg/mL | selectivity index (Coxsackie B4 virus; Coxsackie B4 virus, VERO cells): ≥ 2 |
| Nc1nc(O)c2ncn(COC(CO)CO)c2n1 [Ganciclovir, reference compound] | > 100 µM | 0.03 µM | 60 µM | – | – | – | – | 1.9 µM | – | > 100 µM | – | 0.025 µM | – | Cytotoxicity MCC ([1]; reference in µM): >100 µM |
| NC(=O)c1ncn([C@@H]2O[C@H](CO)[C@@H](O)[C@H]2O)n1 [Ribavirin, reference compound] | – | – | – | – | – | > 250 µM | > 250 µM | – | 50 µM | – | 38 µM | – | > 250 µM | Cytotoxicity MCC (VERO cells; reference in µM): >250 µM |
| dextran sulphate MW 5,000 [DS-5,000, reference compound] | – | – | – | >100 | – | – | – | – | – | – | – | – | – | Antiviral EC50 Reovirus-1 (Reovirus-1): ≥100 µg/mL; Antiviral EC50 Parainfluenza-3 virus (Parainfluenza-3 virus): >100 µg/mL |
| B1 | – | – | – | – | – | – | – | – | – | – | – | – | – | Cytotoxicity CC50 (CRFK feline kidney cells): 29 µg/mL |
